{
  "source": "paper PMC5218480",
  "about": "(PLoS ONE, 2017)",
  "tested_on": "MV-4-11 cells",
  "test": "Gene expression microarray analysis (Affymetrix PrimeView) and GSEA",
  "type": "cell-based, human",
  "settings": "ProbeSet 11758779_at; LIST B",
  "data": [
    {"compound": "Nc1ncn([C@@H]2O[C@H](CO)[C@@H](O)[C@H]2O)c(=O)n1", "note": "[azacitidine]", "values": [
      {"measurement": "RFU, TMEM50B", "result": 84.99, "unit": "RFU"}
    ]}
  ]
}
